From US10508105B2, “Indazole compounds as mGluR4 allosteric potentiators, compositions, and methods of treating neurological dysfunction” (Vanderbilt University, priority 2017, dated 2019)
Where two headings read alike, the source gives them in different places.

What was measured:
human mGlu4 = human mGlu4 (Homo sapiens (Human), UniProt Q14833); test: mGlu4 PAM assay in human mGlu4/Gqi5 cells with ~EC20 glutamate (Hamamatsu FDSS); type: cell-based; conditions: ~EC20 concentration of glutamate
Description: The disclosed compounds and compositions can be evaluated for their ability to act as a potentiatior of metabotropic glutamate receptor activity, in particular mGluR4 activity, by any suitable known methodology known in the art. For example, Chinese Hamster Ovary (CHO) cells transfected with human mGluR4 or HEK cells co-transfected with rat mGluR4 and the G-protein regulated Inwardly Rectifying Potassium channel (GIRK) were plated in clear bottom assay plates for assay in a Hamamatsu FDSS Fluorometric Plate Reader. The cells were loaded with either a Ca2+-sensitive fluorescent dye or the thallium responsive dye and the plates were washed and placed into a suitable kinetic plate reader. For human mGluR4 assays, a fluorescence baseline was established for 3-5 seconds, the disclosed compounds were then added to the cells, and the response in cells was measured. Approximately two and a half minutes later, a concentration of mGluR4 orthosteric agonist (e.g. glutamate, L-AP4, or L-SOP) eliciting approximately 20% (EC20) of the maximal agonist response was added to the cells, and the response was measured. Two minutes later, a concentration of mGluR4 agonist (e.g. glutamate, L-AP4, or L-SOP) eliciting 80% (EC80) of the maximal agonist response was added to the cells, and the response was measured. For rat mGluR4/GIRK experiments, a baseline was established for approximately five seconds, disclosed compounds were added, and either an EC20 or EC80 concentration of agonist was added approximately two and one half minutes later.
The above described assay operated in two modes. In the first mode, a range of concentrations of the disclosed compounds are added to cells, followed by a single fixed concentration of agonist. If the compound acts as a potentiatior, an EC50 value for potentiation and a maximum extent of potentiation by the compound at this concentration of agonist is determined by non-linear curve fitting. If the compound acts as an antagonist, an IC50 value is determined by non-linear curve fitting. In the second mode, several fixed concentrations of the disclosed compounds are added to various wells on a plate, followed by a range in concentrations of agonist for each concentration of disclosed compound. The EC50 values for the agonist at each concentration of compound are determined by non-linear curve fitting. A decrease in the EC50 value of the agonist with increasing concentrations of the sample compound (a leftward shift of the agonist concentration-response curve) is an indication of the degree of mGluR4 potentiation at a given concentration of the sample compound. A decrease in the maximal response of the agonist with increasing concentrations of the sample compounds, with or without a rightward shift in agonist potency, is an indication of the degree of antagonism at mGluR4. The second mode also indicates whether the sample compounds also affect the maximum response to mGluR4 to agonists.

Brain-Plasma Kp = type: in vivo; conditions: brain and plasma

human mGlu4, sequence (Q14833 33-912): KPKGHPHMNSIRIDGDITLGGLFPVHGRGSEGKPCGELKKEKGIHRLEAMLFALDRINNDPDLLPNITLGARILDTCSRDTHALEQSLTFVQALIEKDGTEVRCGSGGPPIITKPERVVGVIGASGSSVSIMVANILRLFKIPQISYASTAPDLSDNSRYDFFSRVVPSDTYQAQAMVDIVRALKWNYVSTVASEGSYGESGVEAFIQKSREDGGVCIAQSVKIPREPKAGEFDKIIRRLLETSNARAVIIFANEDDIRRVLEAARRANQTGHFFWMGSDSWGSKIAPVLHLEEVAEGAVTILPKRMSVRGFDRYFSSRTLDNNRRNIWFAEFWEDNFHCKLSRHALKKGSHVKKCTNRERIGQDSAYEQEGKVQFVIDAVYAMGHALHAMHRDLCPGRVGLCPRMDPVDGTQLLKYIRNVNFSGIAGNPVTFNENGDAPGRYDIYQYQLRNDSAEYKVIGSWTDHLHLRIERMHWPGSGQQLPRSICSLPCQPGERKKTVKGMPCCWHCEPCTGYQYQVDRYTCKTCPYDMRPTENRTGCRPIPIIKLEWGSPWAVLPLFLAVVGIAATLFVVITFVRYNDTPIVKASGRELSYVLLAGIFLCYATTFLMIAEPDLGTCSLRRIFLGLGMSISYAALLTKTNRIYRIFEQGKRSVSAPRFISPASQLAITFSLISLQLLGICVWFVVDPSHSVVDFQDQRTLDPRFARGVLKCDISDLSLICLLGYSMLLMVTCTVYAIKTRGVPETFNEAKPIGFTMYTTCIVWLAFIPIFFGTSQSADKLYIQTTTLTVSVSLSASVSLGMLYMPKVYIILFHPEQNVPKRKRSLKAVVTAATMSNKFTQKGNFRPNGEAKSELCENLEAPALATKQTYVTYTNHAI

Structure (SMILES) | EC50 (human mGlu4; read-out: mGlu4 PAM EC50) | other results
Cn1nc(OC[C@@H]2COCCO2)c2ccc(NC(=O)c3ccccn3)cc21 |  | EC50 (human mGlu4; read-out: hmGluR4 PAM EC50): 0.119 µM; Kp (Brain-Plasma Kp; rat): 1.47
Cn1nc(C(=O)NC23CC(F)(C2)C3)c2ccc(NC(=O)c3ccccn3)cc21 |  | EC50 (human mGlu4; read-out: hmGluR4 PAM EC50): 0.569 µM; Kp (Brain-Plasma Kp; rat): 1.43
O=C(Nc1ccc2c(OC[C@@H]3CCOC3)n[nH]c2c1)c1ccccn1 |  | EC50 (human mGlu4; read-out: hmGluR4 PAM EC50): 0.201 µM; Kp (Brain-Plasma Kp; rat): 1.44
Cn1nc(OCC2CCOC2)c2ccc(NC(=O)c3ncccc3N)cc21 (centres unmarked) [drawing 241] |  | EC50 (human mGlu4; read-out: hmGluR4 PAM EC50): 0.0754 µM; Kp (Brain-Plasma Kp; rat): 3.09
Cn1nc(OC[C@@H]2COCCO2)c2ccc(NC(=O)c3ncccc3N)cc21 [drawing 248] |  | EC50 (human mGlu4; read-out: hmGluR4 PAM EC50): 0.0501 µM; Kp (Brain-Plasma Kp; rat): 2.3
Cn1nc(OCC2CCOC2)c2ncc(NC(=O)c3ncccc3N)cc21 (centres unmarked) [drawing 242] |  | EC50 (human mGlu4; read-out: hmGluR4 PAM EC50): 0.0868 µM; Kp (Brain-Plasma Kp; rat): 0.72
Cn1nc(OCC2CCOC2)c2ccc(NC(=O)c3cccc(F)n3)cc21 (centres unmarked) [drawing 251] |  | EC50 (human mGlu4; read-out: hmGluR4 PAM EC50): 0.266 µM; Kp (Brain-Plasma Kp; rat): 3.35
Cn1nc(OC[C@@H]2CCOC2)c2ccc(NC(=O)c3ncccc3N)cc21 [drawing 244] |  | EC50 (human mGlu4; read-out: hmGluR4 PAM EC50): 0.0273 µM; Kp (Brain-Plasma Kp; rat): 2.47
Cn1nc(OC[C@H]2CCOC2)c2ccc(NC(=O)c3ncccc3N)cc21 [drawing 245] |  | EC50 (human mGlu4; read-out: hmGluR4 PAM EC50): 0.0242 µM; Kp (Brain-Plasma Kp; rat): 2.9
O=C(Nc1ccc2c(OCC3CCOC3)n[nH]c2c1)c1ccccn1 (centres unmarked) |  | EC50 (human mGlu4; read-out: hmGluR4 PAM EC50): 0.36 µM; Kp (Brain-Plasma Kp; rat): 2.09
Cn1nc(OCC2COCCO2)c2ccc(NC(=O)c3ncccc3N)cc21 (centres unmarked) [Compound 82] | 0.0661 µM | 
Cn1nc(OC[C@H]2CCOC2)c2ncc(NC(=O)c3ncccc3N)cc21 [Compound 84] | 0.166 µM | 
Cn1nc(C(=O)NC2CC(F)(F)C2)c2ccc(NC(=O)c3ccc(F)cn3)cc21 |  | EC50 (human mGlu4; read-out: hmGluR4 PAM EC50): 0.324 µM; Kp (Brain-Plasma Kp; rat): 1.09
Cn1nc(OCC2CCOCC2)c2ccc(Nc3n[nH]c4ncccc34)cc21 [Compound 52] | 0.157 µM | 
Cc1ccc(C(=O)Nc2ccc3c(OCC4CCOC4)nn(C)c3c2)nc1 (centres unmarked) [Compound 90] | 0.574 µM | 
Cn1nc(OCCN2CCOCC2)c2c(Cl)cc(Nc3n[nH]c4cccnc34)cc21 [Compound 24] | 0.322 µM | 
Cn1nc(OCCN2CCOCC2)c2ccc(NC(=O)c3ccccn3)cc21 [Compound 76] | 0.703 µM | 
Cn1nc(OCC2CCOCC2)c2ncc(NC(=O)c3ccccn3)cc21 [Compound 57] | 0.255 µM | 
Cn1nc(OC2CCOCC2)c2ccc(Nc3n[nH]c4cccnc34)cc21 [Compound 20] | 0.0454 µM | 
Cn1nc(OC2CCOC(C)(C)C2)c2ccc(NC(=O)c3ncccc3O)cc21 (centres unmarked) [Compound 69] | 0.117 µM | 
COc1nn(C)c2cc(Nc3n[nH]c4cccnc34)cc(Cl)c12 [Compound 26] | 0.707 µM | 

Structure (SMILES) | EC50 (human mGlu4; read-out: mGlu4 PAM EC50) | other results
Cn1nc(OC[C@H]2CCOC2)c2ncc(NC(=O)c3ncccc3N)cc21 [drawing 247] |  | EC50 (human mGlu4; read-out: hmGluR4 PAM EC50): 0.166 µM; Kp (Brain-Plasma Kp; rat): 1.83
Cn1nc(OC2CCS(=O)(=O)CC2)c2ccc(NC(=O)c3ncccc3N)cc21 [Compound 113] | 0.142 µM | 
COCCOc1nn(C)c2cc(Nc3n[nH]c4ncccc34)ccc12 [Compound 34] | 0.529 µM | 
Cn1nc(OC2CCOC[C@H]2F)c2ccc(NC(=O)c3ncccc3O)cc21 (some centres unmarked) [Compound 72] | 0.132 µM | 
[2H]C([2H])([2H])Oc1nn(C)c2cc(Nc3n[nH]c4cccnc34)ccc12 [Compound 8] | 0.294 µM | 
Cn1nc(OCC2CCOCC2)c2ncc(NC(=O)c3ccccn3)cc21 [drawing 243] |  | EC50 (human mGlu4; read-out: hmGluR4 PAM EC50): 0.394 µM; Kp (Brain-Plasma Kp; rat): 1.51
Cn1nc(OC2CCOC2)c2ccc(Nc3n[nH]c4cccnc34)cc21 (centres unmarked) [Compound 28] | 0.726 µM | 
Cn1nc(OCC2CCCOC2)c2ccc(NC(=O)c3ncccc3N)cc21 (centres unmarked) [Compound 86] | 0.182 µM | 
Cn1nc(C(=O)NC2CCOC2)c2ccc(NC(=O)c3ncccc3N)cc21 (centres unmarked) [Compound 111] | 0.421 µM | 
Cn1nc(OCC2CCCCO2)c2ccc(Nc3n[nH]c4cccnc34)cc21 (centres unmarked) [Compound 14] | 0.0856 µM | 
Cn1nc(OC2CC3CCC2O3)c2ccc(Nc3n[nH]c4ncccc34)cc21 (centres unmarked) [Compound 38] | 0.601 µM | 
Cn1nc(OC2CCS(=O)(=O)C2)c2ccc(NC(=O)c3ncccc3N)cc21 (centres unmarked) [Compound 54] | 0.117 µM | 
CC1CC(Oc2nn(C)c3cc(NC(=O)c4ncccc4O)ccc23)CCO1 (centres unmarked) [Compound 75] | 0.431 µM | 
Cn1nc(OCC2CCOCC2)c2ccc(NC(=O)c3ncccc3O)cc21 [Compound 118] | 0.0368 µM | 
Cn1nc(OCC2CCOCC2)c2ccc(NC(=O)c3ccc(F)cn3)cc21 |  | EC50 (human mGlu4; read-out: hmGluR4 PAM EC50): 0.0992 µM; Kp (Brain-Plasma Kp): 3.29
O=C(Nc1ccc2c(OC[C@H]3CCOC3)n[nH]c2c1)c1ccccn1 |  | EC50 (human mGlu4; read-out: hmGluR4 PAM EC50): 0.228 µM; Kp (Brain-Plasma Kp; rat): 1.42
Cn1nc(OCC2CCOC2)c2ncc(NC(=O)c3ncccc3N)cc21 (centres unmarked) [Compound 56] | 0.0868 µM | 
Cn1nc(OC[C@@H]2CCOC2)c2ncc(NC(=O)c3ncccc3N)cc21 [drawing 246] |  | EC50 (human mGlu4; read-out: hmGluR4 PAM EC50): 0.12 µM; Kp (Brain-Plasma Kp; rat): 1.84
Cn1nc(OC2CCOCC2F)c2ccc(Nc3n[nH]c4cccnc34)cc21 (centres unmarked) [Compound 64] | 0.089 µM | 
Cn1nc(OC[C@H]2COCCO2)c2ccc(NC(=O)c3ncccc3N)cc21 [drawing 249] |  | EC50 (human mGlu4; read-out: hmGluR4 PAM EC50): 0.0587 µM; Kp (Brain-Plasma Kp; rat): 1.88
Cn1nc(OCC2COCCO2)c2ccc(Nc3n[nH]c4cccnc34)cc21 (centres unmarked) [Compound 35] | 0.361 µM | 

Further lines, with some results ahead:

EC50 (human mGlu4; read-out: mGlu4 PAM EC50) | Structure (SMILES) | other results
0.164 µM | Cn1nc(OCC2CC2)c2ccc(Nc3n[nH]c4cccnc34)cc21 [Compound 5] | 
0.1 µM | Cn1nc(OCC2CCCOC2)c2ccc(NC(=O)c3ncccc3O)cc21 (centres unmarked) [Compound 87] | 
0.0404 µM | Cn1nc(OCC2CCOCC2)c2ccc(Nc3n[nH]c4cccnc34)cc21 [Compound 51] | 
0.12 µM | Cn1nc(OC[C@@H]2CCOC2)c2ncc(NC(=O)c3ncccc3N)cc21 [Compound 83] | 
0.112 µM | Cn1nc(OCC2CC2(F)F)c2ccc(Nc3n[nH]c4cccnc34)cc21 (centres unmarked) [Compound 31] | 
0.0451 µM | CC1CC(COc2nn(C)c3cc(NC(=O)c4ccccn4)ccc23)CC(C)O1 (centres unmarked) [Compound 107] | 
0.0587 µM | Cn1nc(OC[C@H]2COCCO2)c2ccc(NC(=O)c3ncccc3N)cc21 [Compound 94] | 
0.0588 µM | Cn1nc(OCC2CCOC(C)(C)C2)c2ccc(NC(=O)c3ccccn3)cc21 (centres unmarked) [Compound 104] | 
0.171 µM | CCCOc1nn(C)c2cc(Nc3n[nH]c4cccnc34)ccc12 [Compound 9] | 
0.356 µM | [2H]C([2H])(C)Oc1nn(C)c2cc(Nc3n[nH]c4cccnc34)ccc12 [Compound 7] | 
0.0638 µM | Cn1nc(OCC2CCCOC2)c2ccc(Nc3n[nH]c4cccnc34)cc21 (centres unmarked) [Compound 88] | 
0.203 µM | Cc1cc(COc2nn(C)c3cc(Nc4n[nH]c5cccnc45)ccc23)no1 [Compound 12] | 
0.403 µM | Cn1nc(OC2CCS(=O)(=O)CC2)c2ccc(NC(=O)c3ncccc3O)cc21 [Compound 41] | 
0.125 µM | Cn1nc(OC2CCOCC2F)c2ccc(NC(=O)c3ncccc3N)cc21 (centres unmarked) [Compound 71] | 
0.115 µM | Cn1nc(OCC2CCOC2)c2ccc(NC(=O)c3nccnc3N)cc21 (centres unmarked) [Compound 92] | 
0.0369 µM | Cn1nc(OC[C@H]2CCOC2)c2ccc(NC(=O)c3ncccc3N)cc21 [Compound 80] | 
0.127 µM | Cn1nc(OCC2CCOC(C)(C)C2)c2ccc(NC(=O)c3ncccc3N)cc21 (centres unmarked) [Compound 105] | 
0.353 µM | Cn1nc(OCC2CCOCC2)c2ncc(Nc3n[nH]c4ncccc34)cc21 [Compound 62] | 
